One assay concerns SARS-CoV-2. The assay can be described thus: microbe, parasite or virus in culture. Type of assay: cell-based. The settings on record: Severe acute respiratory syndrome coronavirus 2, read-out: Antiviral EC50.
Another assay has as its target SARS-CoV-2 3CLpro (Severe acute respiratory syndrome coronavirus 2, UniProt P0DTD1). Description: biochemical.

The values below come from patent US20240101541A1 (priority 2020, published 2024).

Structures are written as SMILES. pEC50, pIC50: −log10 of the molar value. A value given as a limit tells only on which side of the number the result lay.

For the compound `O=C(Cn1nnc2ccccc21)N(Cc1ccsc1)c1ccc(-c2ccccc2)cc1`, the pEC50 – broadly, the negative decadic logarithm of the EC50, by convention in mol/L – in the assay with SARS-CoV-2 was 4.00 to 4.30.

With `O=C(Cn1ccc2ccccc21)N(Cc1ccsc1)c1ccc(-c2ccccc2)cc1`, the pEC50 in the assay on SARS-CoV-2 is < 4.00. Further, the pIC50 (as a rule, the negative decadic logarithm of the IC50, by convention in mol/L) against SARS-CoV-2 3CLpro is < 4.00.

Regarding `O=C(Cn1nnc2ccccc21)N(Cc1ccc(-c2ccccc2)cc1)Cc1ccsc1`, the pEC50 in the assay with SARS-CoV-2 is 4.30 to 5.30. Besides, the pIC50 at SARS-CoV-2 3CLpro was < 4.00.

Turning to `O=C(Cn1nnc2ccccc21)N(Cc1ccc(-c2ccccn2)cc1)Cc1ccsc1`, the pEC50 with SARS-CoV-2 is < 4.00. Also, the negative-log IC50 (pIC50) against SARS-CoV-2 3CLpro is 4.00 to 4.30.
